In BindingDB's records for doi:10.1016/j.bmcl.2012.04.118 (Astrazeneca, 2012):

Test: Inhibition of MCP1-induced CCR2-mediated chemotaxis in human THP-1 cells

**Q.** For `CC(C)N1CCN[C@@H](C(=O)N2CCN(C(=O)Nc3ccc(Cl)c(Cl)c3)CC2)C1`, which IC50 is on record?
**A.** Its IC50 is 5.1 nM.
